Test results from patent US9955691B2, “Macrocyclic picolinamides as fungicides” (DOW AGROSCIENCES LLC, priority 2014, dated 2018).
Like-named read-outs stand apart in the source and are kept apart here.

Experiments:
[1] = system: Mycosphaerella graminicola; Anamorph: Septoria tritici; assay: Fungicidal activity: Leaf Blotch of Wheat (SEPTTR); assay type: in vivo; conditions: Zymoseptoria tritici, High Volume (100 ppm), wheat leaf blotch
In short: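 Compounds were dissolved in acetone, diluted with nine volumes of water containing 110 ppm Triton X-100, and sprayed to run-off on first-leaf Yuma wheat seedlings inoculated with Septoria tritici spores before or after treatment. Plants were held in a dew chamber, then a 20° C. greenhouse. Percent control was derived from disease severity relative to untreated plants.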

Puccinia triticina = assay: Fungicidal activity: Wheat Brown Rust (PUCCRT); assay type: in vivo; conditions: High Volume (100 ppm)
In short: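 Wheat seedlings (Yuma, first leaf) sprayed to run-off with compound in acetone/water with Triton X-100, inoculated with Puccinia triticina before or after treatment. Held overnight in dark dew at 22° C, then greenhouse at 24° C; percent disease control from severity versus untreated plants.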

[2] = 24 h, 1 Day Protectant, read-out: SEPTTR 1 DP disease control
[3] = 72 h, 3 Day Curative, read-out: SEPTTR 3 DC disease control
[4] = 24 h, 1 Day Protectant, read-out: PUCCRT 1 DP disease control
[5] = 72 h, 3 Day Curative, read-out: PUCCRT 3 DC disease control

Structure (SMILES)	pest or weed control at 100 µg/mL [1, 2]	pest or weed control at 100 µg/mL [1, 3]	pest or weed control at 100 µg/mL (Puccinia triticina; [4])	pest or weed control at 100 µg/mL (Puccinia triticina; [5])
COc1ccnc(C(=O)N[C@H]2COC[C@H](CCC(C)C)[C@@H](CCC(C)C)[C@H](C)OC2=O)c1O [compound 117]	> 70%	< 70%	> 70%	> 70%
C=C(C)COC[C@@H]1[C@@H](Cc2ccccc2)COC[C@H](NC(=O)c2nccc(OC)c2O)C(=O)O[C@H]1C [compound 120]	< 70%	< 70%	< 70%	< 70%
COc1ccnc(C(=O)N[C@H]2COC[C@H](Cc3ccccc3)[C@@H](COCC(C)C)[C@H](C)OC2=O)c1O [compound 121]	< 70%	> 70%	< 70%	< 70%
COc1ccnc(C(=O)N[C@@H]2COC[C@@H](Cc3ccccc3)[C@H](COCC(C)C)[C@@H](C)OC2=O)c1O [compound 122]	< 70%	< 70%	< 70%	< 70%
CCCC[C@@H]1[C@@H](Cc2ccc(C(F)(F)F)cc2)COC[C@H](NC(=O)c2nccc(OC)c2O)C(=O)O[C@H]1C [compound 123]	< 70%	< 70%	< 70%	< 70%
COc1ccnc(C(=O)N[C@H]2COC[C@H](Cc3ccccc3)[C@@H](CC(C)C)[C@H](C)OC2=O)c1O [compound 125]	< 70%	< 70%	> 70%	< 70%
CCC[C@H]1COC[C@H](NC(=O)c2nccc(OC)c2O)C(=O)O[C@@H](C)[C@@H]1Cc1ccccc1 [compound 126]	> 70%	> 70%	> 70%	> 70%
COc1ccnc(C(=O)N[C@H]2COC[C@H](CC3CCCC3)[C@@H](CC3CCCC3)[C@H](C)OC2=O)c1O [compound 127]	> 70%	> 70%	> 70%	> 70%
COc1ccnc(C(=O)N[C@H]2COC[C@H](Cc3ccccc3)[C@@H](CCc3ccccc3)[C@H](C)OC2=O)c1O [compound 128]	> 70%	> 70%	> 70%	< 70%
COc1ccnc(C(=O)N[C@H]2COC[C@H](CCC(C)C)[C@@H](CCc3ccccc3)[C@H](C)OC2=O)c1O [compound 129]	> 70%	> 70%	> 70%	> 70%
COc1ccnc(C(=O)N[C@H]2COC[C@H](CCC(C)C)[C@@H](Cc3ccccc3)[C@H](C)OC2=O)c1O [compound 133]	> 70%	> 70%	> 70%	> 70%
COc1ccnc(C(=O)N[C@H]2COC[C@H](Cc3ccc(Cl)cc3)[C@@H](Cc3ccccc3)[C@H](C)OC2=O)c1O [compound 135]	> 70%	< 70%	> 70%	< 70%
COc1ccnc(C(=O)N[C@H]2COC[C@H](Cc3ccc(C(F)(F)F)cc3)[C@@H](Cc3ccccc3)[C@H](C)OC2=O)c1O [compound 136]	> 70%	< 70%	> 70%	> 70%
COc1ccnc(C(=O)N[C@H]2COC[C@H](Cc3ccc(C(F)(F)F)cc3)[C@@H](Cc3ccc(OC(F)(F)F)cc3)[C@H](C)OC2=O)c1O [compound 138]	< 70%	< 70%	< 70%	< 70%
